Assay results taken from ChEMBL document CHEMBL1201862, “PubChem BioAssay data set” (2004).
Counter-ions that a name gives are not always drawn.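 Dose response: 5 concentrations. Exposure: 48 h. Format: 96-well plates. Endpoint: linear interpolation; highest concentration if not reached. GI50 marks 50% less growth.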 Active and inactive are the calls of the source. Rule as the data show it: active = GI50 up to about 1.1 µM and inactive = higher.

Tests used:
Assay in all cases: NCI-60 cell line screen, 48 h
NCI-H226 = tested on: NCI-H226
SK-MEL-28 = tested on: SK-MEL-28
SN12C = tested on: SN12C
CAKI-1 = tested on: CAKI-1
SK-MEL-2 = tested on: SK-MEL-2
HT-29 = tested on: HT-29
NCI-H23 = tested on: NCI-H23
UACC-62 = tested on: UACC-62
OVCAR-3 = tested on: OVCAR-3
SF-539 = tested on: SF-539
K562 = tested on: K562
SF-295 = tested on: SF-295
COLO 205 = tested on: COLO 205
HCT-116 = tested on: HCT-116
IGROV-1 = tested on: IGROV-1
OVCAR-5 = tested on: OVCAR-5
UO-31 = tested on: UO-31
786-0 = tested on: 786-0
ACHN = tested on: ACHN
M14 = tested on: M14

Measured: GI50

CC(=O)Oc1ccc(C2COc3cc(OC(C)=O)c(OC(C)=O)cc3C2)cc1 (stereo not drawn)
inactive: NCI-H226 20.6 µM | SK-MEL-28 16.3 µM | SN12C 22.4 µM | CAKI-1 16.3 µM | SK-MEL-2 14.7 µM | HT-29 49.3 µM | NCI-H23 16 µM | UACC-62 10.1 µM | OVCAR-3 13.7 µM | SF-539 11.7 µM | K562 16.3 µM | SF-295 22.2 µM | COLO 205 17.9 µM | HCT-116 17.4 µM | IGROV-1 12.8 µM | OVCAR-5 56.9 µM | UO-31 22.3 µM

Cc1ccc(S(=O)(=O)OC2=C/C(=N\c3onc(C)c3C)c3ccccc3C2=O)cc1
inactive: NCI-H226 35.4 µM | SK-MEL-28 44.3 µM | SN12C 18.7 µM | CAKI-1 20 µM | SK-MEL-2 12.9 µM | HT-29 34.2 µM | 786-0 37.1 µM | NCI-H23 22.6 µM | UACC-62 20.6 µM | ACHN 26.3 µM | OVCAR-3 16.5 µM | SF-539 31.8 µM | K562 4.41 µM | SF-295 32.4 µM | M14 18.8 µM | COLO 205 86.5 µM | HCT-116 17.6 µM | IGROV-1 > 10 µM | OVCAR-5 20.3 µM | UO-31 17 µM

C[C@]12CC[C@H]3[C@@H](CC=C4C[C@@H](O)CC[C@@]43C)[C@@H]1C/C(=C\c1ccc([N+](=O)[O-])cc1)[C@@H]2O
inactive: NCI-H226 16.8 µM | SK-MEL-28 19.3 µM | SN12C 10.6 µM | CAKI-1 13.8 µM | SK-MEL-2 19.8 µM | HT-29 5.83 µM | 786-0 10.9 µM | NCI-H23 9.98 µM | UACC-62 10.6 µM | ACHN 11.6 µM | OVCAR-3 16.3 µM | SF-539 17.1 µM | K562 5.68 µM | SF-295 16.8 µM | M14 22.7 µM | COLO 205 15.1 µM | HCT-116 3.92 µM | IGROV-1 26 µM | OVCAR-5 25.2 µM | UO-31 8.93 µM

CC(C)(CCCCC(C)(C)C1NC(=O)N1)C1NC(=O)N1
inactive: NCI-H226 > 10 µM | SK-MEL-28 > 10 µM | SN12C > 10 µM | CAKI-1 > 10 µM | SK-MEL-2 > 10 µM | HT-29 > 10 µM | NCI-H23 > 10 µM | UACC-62 > 10 µM | ACHN > 10 µM | SF-539 > 10 µM | K562 > 10 µM | SF-295 > 10 µM | M14 > 10 µM | COLO 205 > 10 µM | HCT-116 > 10 µM | IGROV-1 > 10 µM | OVCAR-5 > 10 µM | UO-31 5.05 µM

N#Cc1c(-c2nc3ccccc3s2)c(=O)oc2cc(O)ccc12
inactive: NCI-H226 41 µM | SK-MEL-28 41.1 µM | SN12C 42.3 µM | CAKI-1 17.5 µM | SK-MEL-2 49.7 µM | HT-29 13 µM | 786-0 26.4 µM | NCI-H23 24.8 µM | UACC-62 > 100 µM | ACHN 25 µM | OVCAR-3 2.25 µM | SF-539 > 100 µM | K562 31.8 µM | SF-295 36.4 µM | M14 35.2 µM | COLO 205 13.3 µM | HCT-116 31.5 µM | IGROV-1 15.3 µM | OVCAR-5 52 µM | UO-31 22 µM

O=C(O)CCCCn1ccc(=O)[nH]c1=O
inactive: NCI-H226 > 100 µM | SK-MEL-28 > 100 µM | SN12C > 100 µM | CAKI-1 > 100 µM | SK-MEL-2 > 100 µM | HT-29 > 100 µM | 786-0 > 100 µM | NCI-H23 > 100 µM | UACC-62 > 100 µM | ACHN > 100 µM | OVCAR-3 > 100 µM | SF-539 > 100 µM | K562 > 100 µM | SF-295 > 100 µM | M14 > 100 µM | COLO 205 > 100 µM | HCT-116 > 100 µM | IGROV-1 > 100 µM | OVCAR-5 > 100 µM | UO-31 > 100 µM

C#C[C@@H](OC(=O)c1ccc([N+](=O)[O-])cc1)[C@@H]1C[C@H]2O[C@@H]([C@H](C/C=C/CC)OC(=O)c3ccc([N+](=O)[O-])cc3)C[C@H]2O1
inactive: NCI-H226 > 100 µM | SK-MEL-28 > 100 µM | SN12C > 100 µM | CAKI-1 > 100 µM | SK-MEL-2 > 100 µM | HT-29 > 100 µM | 786-0 > 100 µM | NCI-H23 > 100 µM | UACC-62 > 100 µM | ACHN > 100 µM | OVCAR-3 > 100 µM | SF-539 > 100 µM | K562 > 100 µM | SF-295 > 100 µM | M14 > 100 µM | COLO 205 > 100 µM | HCT-116 > 100 µM | IGROV-1 83.4 µM | OVCAR-5 > 100 µM | UO-31 > 100 µM

CNCCC=C1c2ccccc2CCc2ccccc21 [NORTRIPTYLINE HYDROCHLORIDE]
inactive: NCI-H226 22.1 µM | SK-MEL-28 13.5 µM | SN12C 15.4 µM | CAKI-1 13.8 µM | SK-MEL-2 15.4 µM | HT-29 4.69 µM | 786-0 14.6 µM | NCI-H23 15.7 µM | UACC-62 14.8 µM | ACHN 16.6 µM | OVCAR-3 11.4 µM | SF-539 28.5 µM | K562 11.4 µM | SF-295 14.6 µM | M14 4.25 µM | COLO 205 7.62 µM | HCT-116 14.6 µM | IGROV-1 16.7 µM | OVCAR-5 15.3 µM | UO-31 6.14 µM

O=C(N[C@H]1c2ccsc2/C(=N/O)[C@H]1O)C(F)(F)F
inactive: NCI-H226 > 100 µM | SK-MEL-28 > 100 µM | SN12C > 100 µM | CAKI-1 > 100 µM | SK-MEL-2 > 100 µM | HT-29 > 100 µM | NCI-H23 > 100 µM | UACC-62 > 100 µM | OVCAR-3 > 100 µM | SF-539 > 100 µM | K562 > 100 µM | SF-295 > 100 µM | M14 > 100 µM | COLO 205 > 100 µM | HCT-116 > 100 µM | IGROV-1 > 100 µM | OVCAR-5 > 100 µM | UO-31 > 100 µM

C/C(=C\c1ccccc1)C(=O)CCN1CCOCC1
inactive: NCI-H226 > 46.1 µM | SK-MEL-28 19.4 µM | SN12C 18.2 µM | CAKI-1 18.1 µM | SK-MEL-2 27.2 µM | HT-29 18.8 µM | NCI-H23 16.9 µM | UACC-62 17.6 µM | OVCAR-3 19.3 µM | SF-539 18.3 µM | K562 30.1 µM | SF-295 > 100 µM | COLO 205 17.2 µM | HCT-116 28 µM | IGROV-1 27.4 µM | OVCAR-5 18.9 µM | UO-31 20.8 µM

N#Cc1nc(-c2cccc(-c3nc(C#N)c(N)o3)n2)oc1N
inactive: NCI-H226 > 100 µM | SK-MEL-28 > 100 µM | SN12C > 100 µM | CAKI-1 > 100 µM | SK-MEL-2 > 100 µM | HT-29 > 100 µM | 786-0 > 100 µM | NCI-H23 > 100 µM | UACC-62 > 100 µM | ACHN > 100 µM | OVCAR-3 > 100 µM | SF-539 > 100 µM | K562 > 100 µM | SF-295 > 100 µM | M14 > 100 µM | COLO 205 > 100 µM | HCT-116 > 100 µM | IGROV-1 > 100 µM | OVCAR-5 > 100 µM | UO-31 > 100 µM

CC(C)[C@H]1NC(=O)[C@H]2N=C(O[C@@H]2C)[C@@H]2CCCN2C(=O)[C@H](Cc2ccccc2)NC(=O)[C@@H]2COC(=N2)[C@@H](Cc2ccccc2)NC(=O)[C@@H]2COC1=N2
inactive: NCI-H226 > 100 µM | SK-MEL-28 > 100 µM | SN12C > 100 µM | CAKI-1 > 100 µM | SK-MEL-2 > 100 µM | HT-29 > 100 µM | 786-0 > 100 µM | NCI-H23 > 100 µM | UACC-62 > 100 µM | ACHN > 100 µM | OVCAR-3 > 100 µM | SF-539 > 100 µM | K562 > 100 µM | SF-295 > 100 µM | M14 > 100 µM | COLO 205 > 100 µM | HCT-116 > 100 µM | IGROV-1 > 100 µM | OVCAR-5 > 100 µM | UO-31 > 100 µM

COc1cc2c(cc1OC)C1Cc3cc(OC)c(OC)cc3C(C2)O1
inactive: NCI-H226 > 100 µM | SK-MEL-28 > 100 µM | SN12C > 100 µM | CAKI-1 44.9 µM | SK-MEL-2 > 100 µM | HT-29 > 100 µM | NCI-H23 > 100 µM | UACC-62 > 100 µM | ACHN > 100 µM | OVCAR-3 > 100 µM | SF-539 > 100 µM | K562 46.7 µM | SF-295 95.7 µM | M14 > 100 µM | COLO 205 > 100 µM | HCT-116 > 100 µM | IGROV-1 49.8 µM | OVCAR-5 > 100 µM | UO-31 83.8 µM

CCC(=O)Nc1ccc(/N=C/c2cccc(Oc3ccccc3)c2)cc1
inactive: NCI-H226 18.2 µM | SK-MEL-28 86.9 µM | SN12C > 100 µM | CAKI-1 > 100 µM | SK-MEL-2 > 100 µM | HT-29 49.2 µM | 786-0 42.4 µM | NCI-H23 > 100 µM | UACC-62 95.7 µM | ACHN > 100 µM | OVCAR-3 63.8 µM | SF-539 16.4 µM | K562 24.4 µM | SF-295 > 100 µM | M14 46.6 µM | COLO 205 44.6 µM | HCT-116 39.8 µM | IGROV-1 63.4 µM | UO-31 70.5 µM
